From patent US20090053168A1, “TREATMENTS OF B-CELL PROLIFERATIVE DISORDERS” (priority 2007, published 2009)
Counter-ions that a name gives are not always drawn. Like-named read-outs stand apart in the source and are kept apart here.

What was measured:
RPMI-8226 cells = assay: Anti-proliferation assay (ATPLite, 72 h), RPMI-8226; assay type: cell-based; settings: for synergy score: RPMI-8226
MM.1R cells = assay: Anti-proliferation assay (ATPLite, 72 h), MM.1R; assay type: cell-based
H929 cells = assay: Anti-proliferation assay (ATPLite, 72 h), H929; assay type: cell-based; settings: for synergy score: H929; for Synergy score with dexamethasone, H929: combination with dexamethasone, Loewe-based Synergy Score, 72 h
MM.1S cells [1] = assay: Anti-proliferation assay (ATPLite, 72 h), MM.1S; settings: for synergy score: MM.1S; for Synergy score with dexamethasone, MM.1S: combination with dexamethasone, Loewe-based Synergy Score
[2] = test system: chronic lymphocytic leukemia (CLL) cells; assay: Apoptosis assay (Hoechst 33342 flow cytometry, 48 h) on patient CLL cells; assay type: cell-based, human; settings: for Induction of CLL cell apoptosis: Patient #1
Source text: Patients with active infections or other serious medical conditions were not included in this study. Patients with white blood cell counts of less than 15,000/μl by automated analysis were excluded from this study. Whole blood was layered on Ficoll-Hystopaque (Sigma), and peripheral blood mononuclear cells (PBMC) isolated after centrification. […] One million cells were stained with anti-CD5-PE and anti-CD19-PE-Cy5 (Becton […].). The percentage of B-CLL cells was defined as the percentage of cells doubly expressing CD5 and CD19, as determined by flow cytometry. […] Compound master plates were diluted 1:50 into complete media to create working compound dilutions. Compound crosses were then created by diluting two working dilution plates 1:10 into each plate of cells. […] Hoechst 33342 (Molecular Probes, Eugene Oreg.) at a final concentration of 0.25 μg/mL was added to each well and the cells incubated at 37° C. for an additional ten minutes before being placed on ice until analysis. Plates were then analyzed on a LSR-II flow cytometer (Becton Dickenson, Franklin Lakes, N.J.) equipped with the High Throughput Sampling (HTS) option in high throughput mode. […] The apoptotic fraction was calculated using FlowJo software (Tree Star Inc., Ashland, Oreg.) after excluding debris by a FSC/SSC gate and subsequently gating for cells that accumulate the Hoechst dye.

MM.1S cells [3] = settings: MM.1S
[4] = in combination with HE-NECA, MM.1R
[5] = in combination with ADAC, MM.1R
[6] = combination with dexamethasone, Loewe-based Synergy Score, 72 h
[7] = Homo sapiens, MM1.S, read-out: percent inhibition of cell proliferation
[8] = Homo sapiens, MM1.S, 72 h, read-out: percent inhibition of cell proliferation

For `CCCCCC[C@@H]([C@@H](C)O)n1cnc2c(N)ncnc21` (racemic) [EHNA, erythro-9-(2-hydroxy-3-nonyl)adenine], the “Synergy score with dexamethasone, RPMI-8226” value (“Synergy score … RPMI-8226” for short) (RPMI-8226 cells) was 1.14.
With `CCCCc1oc2ccccc2c1C(=O)c1cc(I)c(OCCN(CC)CC)c(I)c1` [Amiodarone] the “synergy score” value (MM.1R cells; [4]) was 0.67.
In the case of `Cn1cnc([N+](=O)[O-])c1Sc1ncnc2nc[nH]c12` [Azathioprine], the synergy score (RPMI-8226 cells; in combination with ADAC) is reported as 1.63, the synergy score (H929 cells; in combination with ADAC) is reported as 1.22 and the synergy score (MM.1S cells [1]; in combination with ADAC) is reported as 1.43. It also gave a synergy score (MM.1R cells; [5]) of 1.26.
With `COc1ccc(Cc2nn3c([C@@H](CCCc4ccccc4)[C@@H](C)O)nc(C)c3c(=O)[nH]2)cc1OC` [BAY 60-7550, 2-(3,4-dimethoxybenzyl)-7-[(1R)-1-[(1R)-1-hydroxyethyl]-4-phenylbutyl]-5-methylimidazo[5,1-f][1,2,4]triazin-4(3H)-one] the “Synergy score … RPMI-8226” value (RPMI-8226 cells; [6]) was 1.37, the “Synergy score with dexamethasone, H929” value (H929 cells) was 0.822 and the inhibition at 0.437 µM (MM.1S cells [1]; [7]) was 2.2%. For the same molecule, the inhibition at 1.31 µM (MM.1S cells [1]; [7]) was 1.7%, the inhibition at 3.93 µM (MM.1S cells [1]; [7]) was 3% and the inhibition at 35.4 µM (MM.1S cells [1]; [7]) was 44%. For the same molecule, the “Synergy score with dexamethasone, MM.1S” value (MM.1S cells [1]; 72 h) was 1.44.
With `CCCCOc1ccc(CC(=O)NO)cc1` [Bufexamac] the synergy score (RPMI-8226 cells; in combination with ADAC) was 1.399, the synergy score (RPMI-8226 cells; in combination with HE-NECA) was 0.3833 and the synergy score (H929 cells; in combination with ADAC) was 1.12. For the same molecule, the synergy score (H929 cells; in combination with HE-NECA) was 3.17, the synergy score (MM.1S cells [1]; in combination with ADAC) was 1.479 and the synergy score (MM.1S cells [1]; in combination with HE-NECA) was 3.476. For the same molecule, the synergy score (MM.1R cells; [5]) was 1.532 and the synergy score (MM.1R cells; [4]) was 3.173.
In the case of `OC[C@H]1O[C@@H](n2cnc3c(NC4CCCC4)nc(Cl)nc32)[C@H](O)[C@@H]1O` [CCPA, 2-chloro-N^6-cyclopentyladenosine], the “Synergy score … RPMI-8226” value (RPMI-8226 cells; [6]) is reported as 5.04, the inhibition at 0.0625 µM (MM.1S cells [1]; [8]) is reported as 2.4% and the inhibition at 0.187 µM (MM.1S cells [1]; [8]) is reported as 21%. The inhibition at 0.562 µM (MM.1S cells [1]; [8]) was 15%, the inhibition at 1.69 µM (MM.1S cells [1]; [8]) was 38% and the inhibition at 5.06 µM (MM.1S cells [1]; [8]) was 50%. The “activity and synergy in antiproliferation assays” value (MM.1S cells [1]; RPMI-8226, H929, MM.1S and MM.1R MM cell lines) was “active and synergistic” and the “Synergy score with dexamethasone, MM.1S” value (MM.1S cells [1]; 72 h) was 5.15.
With `CCNC(=O)[C@H]1O[C@@H](n2cnc3c(N)nc(NCCc4ccc(CCC(=O)O)cc4)nc32)[C@H](O)[C@@H]1O` [CGS-21680, 2-(4-(2-carboxyethyl)phenethylamino)-5′-N-ethylcarboxamidoadenosine] the “Induction of CLL cell apoptosis” value ([2]; CGS-21680 0.05 μM alone) was 12%, the “Induction of CLL cell apoptosis” value ([2]; CGS-21680 0.15 μM alone) was 14% and the “Induction of CLL cell apoptosis” value ([2]; CGS-21680 0.45 μM alone) was 16%. The “apoptosis, CLL cells patient 1” value ([2]; patient 1, 48 hours) was 14%, the “apoptosis, CLL cells patient #2” value ([2]; patient #2, 48 hours) was 9% and the “Synergy score … RPMI-8226” value (RPMI-8226 cells; [6]) was 2.54. The “Synergy score with dexamethasone, MM.1S” value (MM.1S cells [1]; 72 h) was 4.73.
In the case of `CN(C(=O)CCCOc1ccc2[nH]c(=O)ccc2c1)C1CCCCC1` [Cilostamide, N-cyclohexyl-4-((1,2-dihydro-2-oxo-6-quinolinyl)oxy)-N-methyl-butanamide], the “Synergy score … RPMI-8226” value (RPMI-8226 cells; [6]) is reported as 1.42, the “Synergy score with dexamethasone, H929” value (H929 cells) is reported as 0.982 and the inhibition at 0.368 µM (MM.1S cells [1]; [7]) is reported as 0.46%. The inhibition at 1.1 µM (MM.1S cells [1]; [7]) was 2.4%, the inhibition at 3.31 µM (MM.1S cells [1]; [7]) was -2% and the inhibition at 9.93 µM (MM.1S cells [1]; [7]) was 4.2%. For the same molecule, the inhibition at 29.8 µM (MM.1S cells [1]; [7]) was 33% and the “Synergy score with dexamethasone, MM.1S” value (MM.1S cells [1]; 72 h) was 1.34.
`CN1C[C@H](C(=O)N[C@]2(C)O[C@@]3(O)[C@@H]4CCCN4C(=O)[C@H](Cc4ccccc4)N3C2=O)C[C@@H]2c3cccc4[nH]cc(c34)C[C@H]21` [Dihydroergotamine] was tested, and the “synergy score” value (MM.1R cells; [4]) was 2.56.
In the case of `C[C@H]1c2cccc(O)c2C(=O)C2=C(O)[C@]3(O)C(=O)C(C(N)=O)=C(O)[C@@H](N(C)C)[C@@H]3[C@@H](O)[C@@H]21` [Doxycycline], the synergy score (RPMI-8226 cells; in combination with ADAC) is reported as 1.17, the synergy score (H929 cells; in combination with ADAC) is reported as 2.35 and the synergy score (MM.1S cells [1]; in combination with ADAC) is reported as 2.22. For the same molecule, the synergy score (MM.1R cells; [5]) was 0.78.
For `COc1cccc2c1C(=O)c1c(O)c3c(c(O)c1C2=O)C[C@@](O)(C(=O)CO)C[C@@H]3O[C@H]1C[C@H](N)[C@@H](O)[C@H](C)O1` [Epirubicin], the synergy score (RPMI-8226 cells; in combination with ADAC) was 1.14, the synergy score (H929 cells; in combination with ADAC) was 0.33 and the synergy score (MM.1R cells; [5]) was 1.42.
`Nc1ccn([C@@H]2O[C@H](CO)[C@@H](O)C2(F)F)c(=O)n1` [Gemcitibine] gave a synergy score (RPMI-8226 cells; in combination with ADAC) of 0.3, a synergy score (H929 cells; in combination with ADAC) of 0.07 and a synergy score (MM.1S cells [1]; in combination with ADAC) of 1.42. It also gave a synergy score (MM.1R cells; [5]) of 1.2.
`C#C[C@]1(O)CC[C@H]2[C@@H]3CCC4=CC(=O)CCC4=C3C=C[C@@]21CC` [Gestrinone] was tested, and the “synergy score” value (MM.1R cells) was 1.19.
With `CCc1c2c(nc3ccc(OC(=O)N4CCC(N5CCCCC5)CC4)cc13)-c1cc3c(c(=O)n1C2)COC(=O)[C@]3(O)CC` [Irinotecan hydrochloride] the synergy score (RPMI-8226 cells; in combination with ADAC) was 1.414, the synergy score (RPMI-8226 cells; in combination with HE-NECA) was 1.227 and the synergy score (H929 cells; in combination with ADAC) was 1.877. The synergy score (H929 cells; in combination with HE-NECA) was 0.6736, the synergy score (MM.1S cells [1]; in combination with ADAC) was 2.576 and the synergy score (MM.1S cells [1]; in combination with HE-NECA) was 0.6406. It also gave a synergy score (MM.1R cells; [5]) of 3.13 and a synergy score (MM.1R cells; [4]) of 0.6972.
In the case of `O=c1cc(N2CCOCC2)oc2c(-c3ccccc3)cccc12` [LY 294002], the “synergy score” value (MM.1R cells; [4]) is reported as 0.83.
For `C[C@@H]1C[C@H]2O[C@@H]2/C=C\C=C\C(=O)Cc2c(Cl)c(O)cc(O)c2C(=O)O1` [Monordon], the “synergy score” value (MM.1R cells) was 1.7.
With `COc1ccc(Cc2nccc3cc(OC)c(OC)cc23)cc1OC` [Papaverine, 1-[(3.4-dimethoxyphenyl)-methyl]-6,7-dimethoxyisoquinolone] the “Synergy score … RPMI-8226” value (RPMI-8226 cells; [6]) was 3.49, the “Synergy score with dexamethasone, H929” value (H929 cells) was 3.05 and the “Synergy score with dexamethasone, MM.1S” value (MM.1S cells [1]; 72 h) was 2.99.
With `O=C1C=C2C(=CCOC2O)O1` (centres unmarked) [Patulin] the “synergy score” value (MM.1R cells; [4]) was 1.73.
`COc1ccc(C2CNC(=O)C2)cc1OC1CCCC1` (centres unmarked) [Rolipram, 4-(3-cyclopentyloxy-4-methoxyphenyl)-2-pyrrolidone] was tested, and the “Synergy score … RPMI-8226” value (RPMI-8226 cells; [6]) was 1.43, the “Synergy score with dexamethasone, H929” value (H929 cells) was 0.0927 and the “Synergy score with dexamethasone, MM.1S” value (MM.1S cells [1]; 72 h) was 0.203.
`Nc1nc2c(cnn2CCc2ccccc2)c2nc(-c3ccco3)nn12` [SCH 58261] was tested, and the “blocking of chloro-IB-MECA antiproliferative activity” value (MM.1S cells [3]; SCH 58261 78 nM, 72 hours, 2-fold dilutions of chloro-IB-MECA) was > 50% and the “blocking of chloro-IB-MECA antiproliferative activity” value (MM.1S cells [3]; antagonist concentration increased 2-fold) was > 70%.
For `CC(=O)S[C@@H]1CC2=CC(=O)CC[C@]2(C)[C@H]2CC[C@@]3(C)[C@@H](CC[C@@]34CCC(=O)O4)[C@H]12` [Spironolactone], the synergy score (RPMI-8226 cells; in combination with ADAC) was 0.8213, the synergy score (RPMI-8226 cells; in combination with HE-NECA) was 0.6876 and the synergy score (H929 cells; in combination with ADAC) was 0.6779. The synergy score (H929 cells; in combination with HE-NECA) was 1.831, the synergy score (MM.1S cells [1]; in combination with ADAC) was 1.444 and the synergy score (MM.1S cells [1]; in combination with HE-NECA) was 1.835. It also gave a synergy score (MM.1R cells; [5]) of 2.029 and a synergy score (MM.1R cells; [4]) of 1.151.
`O=c1[nH]c(=O)n([C@H]2C[C@H](O)[C@@H](CO)O2)cc1C(F)(F)F` [Trifluridine] was tested, and the “synergy score” value (MM.1R cells; [4]) was 1.94.
In the case of `CC(C)[C@]12O[C@H]1[C@@H]1O[C@]13[C@]1(O[C@H]1C[C@H]1C4=C(CC[C@@]13C)C(=O)OC4)[C@@H]2O` [Triptolide], the “synergy score” value (MM.1R cells; [4]) is reported as 2.12.
